molecular target: T1, Phosphodiesterase 4 (Homo sapiens, UniProt P27815+Q08499+Q07343+Q08493); experiment: Inhibition of PDE4 in human U937 cells at 1 uM after 30 mins by electrochemiluminescence based immunoassay; assay type: cell-based; conditions: U-937

Compared with CCn1nc(-c2ccccc2)c(C#N)c1/C=C/c1ccccc1C(=O)O, CCn1nc(-c2ccccc2)c(C#N)c1/C=C/c1cccc2ccccc12 is higher in inhibition: 6% for the first, 35% for the second.

Going from CCCOC(=O)c1nn(CC)c(=O)c2nn(-c3cccc([N+](=O)[O-])c3)c(C)c12 to CCn1nc(C(=O)OC(C)C)c2c(C)n(-c3cccc([N+](=O)[O-])c3)nc2c1=O, the inhibition falls from 14% to 6%.

CCOC(=O)Cn1nc(-c2ccccc2)c2c(C)n(-c3cccc([N+](=O)[O-])c3)nc2c1=O and CCOC(=O)CCn1nc(-c2ccccc2)c2c(C)n(-c3cccc([N+](=O)[O-])c3)nc2c1=O are the same in inhibition: 1% for the first, 1% for the second.

First: CCn1nc(-c2ccncc2)c(C#N)c1CCc1cccc2ccccc12
Second: CCn1nc(-c2ccccc2)c(C#N)c1CCc1cccc2ccccc12
The inhibition of the first is higher: 2.8% for the first, -3% for the second.

First: CCn1nc(-c2ccccc2)c(C#N)c1CCc1ccccc1C(=O)O
Second: COc1ccc(CCc2c(C#N)c(-c3ccccc3)nn2C)cc1OC
The inhibition of the first is lower: 11% for the first, 14% for the second.

Going from CCOC(=O)CCn1nc(C)c2c(C)n(-c3cccc([N+](=O)[O-])c3)nc2c1=O to CCOC(=O)Cn1nc(C)c2c(C)n(-c3cccc([N+](=O)[O-])c3)nc2c1=O, the inhibition rises from 4% to 64.1%.

Going from CCn1nc(-c2ccccc2)c2c(C)n(-c3cccc([N+](=O)[O-])c3)nc2c1=O to CCn1nc(C(=O)O)c2c(C)n(-c3cccc([N+](=O)[O-])c3)nc2c1=O, the inhibition falls from 47% to 2%.

First: Cc1nn(C)c(CCc2ccccc2)c1C#N
Second: Cc1nn(C)c(/C=C/c2ccccc2)c1C#N
The inhibition of the first is higher: 2.1% for the first, 1.3% for the second.

First: CCN(C)C(=O)c1nn(CC)c(=O)c2nn(-c3cccc([N+](=O)[O-])c3)c(C)c12
Second: CCn1nc(C(=O)N(C)C)c2c(C)n(-c3cccc([N+](=O)[O-])c3)nc2c1=O
The inhibition of the first is lower: -2% for the first, 4% for the second.

First: CCn1nc(C(=O)NC)c2c(C)n(-c3cccc([N+](=O)[O-])c3)nc2c1=O
Second: CCn1nc(-c2nnc(C)o2)c2c(C)n(-c3cccc([N+](=O)[O-])c3)nc2c1=O
The inhibition of the first is lower: 14% for the first, 48% for the second.

First: CCn1nc(CO)c2c(C)n(-c3ccccc3Cl)nc2c1=O
Second: CCn1nc(COC)c2c(C)n(-c3ccccc3Cl)nc2c1=O
The inhibition of the first is lower: -4% for the first, 41% for the second.

Going from CCn1nc(-c2ccncc2)c(C#N)c1/C=C/c1cccc2ccccc12 to CCn1nc(C#N)c2c(C)n(-c3ccccc3Cl)nc2c1=O, the inhibition falls from 19% to -2%.

Going from CCn1nc(C#N)c2c(C)n(-c3c(Cl)cccc3Cl)nc2c1=O to CCn1nc(C(=O)Nc2c(Cl)cncc2Cl)c2c(C)n(-c3ccccc3)nc2c1=O, the inhibition rises from 2% to 3%.

Going from CCn1nc(COC)c2cn(-c3ccccc3Cl)nc2c1=O to COCc1nn(CC2CC2)c(=O)c2nn(-c3ccccc3Cl)cc12, the inhibition falls from 65% to 19%.

CCOC(=O)c1nn(CC)c(=O)c2nn(-c3cccc(CO)c3)c(C)c12 was tested, and the inhibition was 39%.

molecular target: T1, Phosphodiesterase 4; experiment: Inhibition of PDE4 in human U937 cells at 10 uM after 30 mins by electrochemiluminescence based immunoassay; assay type: cell-based; conditions: U-937

Work on CCOC(=O)c1nn(CC)c(=O)c2nn(Cc3ccc(C#N)cc3)c(C)c12 yielded an inhibition of 5%.

molecular target: T1, Phosphodiesterase 4; experiment: Inhibition of PDE4 in human U937 cells after 30 mins by electrochemiluminescence based immunoassay; assay type: cell-based; conditions: u-937

CCOC(=O)c1nn(CC)c(=O)c2nn(-c3cccc([N+](=O)[O-])c3)c(C)c12 and CCCn1nc(C(=O)OCC)c2c(C)n(-c3cccc([N+](=O)[O-])c3)nc2c1=O are within 1.5-fold of each other in IC50: 75 nM for the first, 72 nM for the second.

First: CCOC(=O)c1nn(CC2CC2)c(=O)c2nn(-c3ccccc3Cl)c(C)c12
Second: CCOC(=O)c1nn(CC)c(=O)c2nn(-c3ccccc3Cl)c(C)c12
The IC50 of the first is 12-fold higher: 374 nM for the first, 32 nM for the second.

CCOC(=O)c1nn(CC)c(=O)c2nn(Cc3ccc(C(=O)OC)cc3)c(C)c12 and CCOC(=O)c1nn(CC)c(=O)c2nn(Cc3ccc([N+](=O)[O-])cc3)c(C)c12 are within 1.5-fold of each other in IC50: 1200 nM for the first, 1140 nM for the second.

CCOC(=O)c1nn(CC)c(=O)c2nn(-c3cc(C(=O)OC)ccc3C)c(C)c12 and CCOC(=O)c1nn(CC)c(=O)c2nn(-c3cc(C(N)=O)ccc3Cl)c(C)c12 are within 1.5-fold of each other in IC50: 876 nM for the first, 757 nM for the second.

Going from CCn1nc(C(=O)OC)c2c(C)n(-c3cccc([N+](=O)[O-])c3)nc2c1=O to CCn1nc(C)c2c(C)n(-c3cccc([N+](=O)[O-])c3)nc2c1=O, the IC50 rises from 46 nM to 385 nM (8.4-fold).

Going from CCOC(=O)c1nn(CC)c(=O)c2nn(-c3ccccc3)c(C)c12 to CCOC(=O)c1nn(CC)c(=O)c2nn(-c3ccccc3C)c(C)c12, the IC50 falls from 300 nM to 59 nM (5.1-fold).

CCOC(=O)c1nn(CC)c(=O)c2nn(-c3c(Cl)cccc3Cl)c(C)c12 gave an IC50 of 237 nM.

test system: PBMC; experiment: Antiinflammatory activity in human PBMC assessed as inhibition of LPS-induced TNFalpha production; assay type: functional, cell-based; conditions: not given

Going from CCOC(=O)c1nn(CC)c(=O)c2nn(-c3cccc([N+](=O)[O-])c3)c(C)c12 to CCOC(=O)c1nn(CC)c(=O)c2nn(-c3ccccc3C)c(C)c12, the IC50 falls from 383 nM to 127 nM (3-fold).

From ChEMBL document CHEMBL1157770, “Functionalized pyrazoles and pyrazolo[3,4-d]pyridazinones: Synthesis and evaluation of their phosphodiesterase 4 inhibitory activity” (Bioorg Med Chem, 2010)
